In paper PMC11118710, “GLP-1 and Its Derived Peptides Mediate Pain Relief Through Direct TRPV1 Inhibition Without Affecting Thermoregulation” (Research Square, 2024):

Columns and labels:
[1] = test system: rat TRPV1; assay: Ca2+ imaging, CAP-induced responses in HEK293T cells transfected with rat TRPV1; assay type: cell-based; conditions: no GLP-1R expression, 100 nM peptide, 100 nM CAP, vs control CAP
Description: DRG cells were then grown in a neurobasal-defined medium supplemented with 10% fetal bovine serum (FBS; Gibco, Waltham, MA), 2% B27 supplement (Invitrogen, Carlsbad, CA), and 1% penicillin/streptomycin for 24 h before experiments. Human TRPV1 (hTRPV1)-expressing CHO K1 cells were cultured using Dulbecco’s modified Eagle’s medium (DMEM) containing 10% FBS, 1% penicillin/streptomycin, and 800 μg/mL geneticin in an incubator with 5% CO2 at 37°C. HEK293 and HEK293T cells were also cultured in the same DMEM but without geneticin. Rat TRPV1 plasmids were labeled with a green fluorescent protein to indicate subsequent calcium imaging. cDNA constructs of rat TRPV1 were transiently transfected into cells using Lipofectamine 2000 (Invitrogen). Ca^2+ imaging was performed one day after transient transfection.
At room temperature, Ca^2+ imaging was conducted in mouse DRG, HEK293T, and hTRPV1-expressing CHO K1 cells. Cells on poly-D-lysine-coated coverslips were loaded with 2 μM Fura-2 AM (Thermo Fisher Scientific, Waltham, MA) at 37°C for 40 min in DMEM. The cells were then rinsed three times with the medium and incubated for 30 min, following which they were placed on the stage of an inverted microscope (BX51W1; Olympus, Tokyo, Japan) and continuously superfused at a flow speed of 1 mL/min with a bath solution containing 140 mM NaCl, 5 mM KCl, 1 mM CaCl2, 2 mM MgCl2, 10 mM HEPES, and 10 mM glucose, adjusted to pH 7.4 with NaOH. Using illumination with a 175-W xenon arc lamp, excitation wavelengths (340/380 nm) were selected using a Lambda DG-4 monochromator wavelength changer (Shutter Instrument, Novato, CA). The fluorescence 340/380 ratio was measured using digital video microfluorometry with an intensified camera (OptiMOS; QImaging, Surrey, Canada) coupled to the microscope. Data were analyzed using SlideBook 6 (Intelligent Imaging Innovations, Denver, CO). At the end of the experiment, cells were identified based on their response to high concentrations of KCl.

[2] = test system: TRPV1 (mouse DRG neurons); assay: Ca2+ imaging, CAP-induced responses in mouse DRG neurons; assay type: cell-based; conditions: 100 nM CAP, Fura-2 340/380 ratio
Description: Cells were mechanically dissociated by gentle pipetting and placed on glass coverslips coated with poly-D-lysine.
At room temperature, Ca^2+ imaging was conducted in mouse DRG, HEK293T, and hTRPV1-expressing CHO K1 cells. […] The cells were then rinsed three times with the medium and incubated for 30 min, following which they were placed on the stage of an inverted microscope (BX51W1; Olympus, Tokyo, Japan) and continuously superfused at a flow speed of 1 mL/min with a bath solution containing 140 mM NaCl, 5 mM KCl, 1 mM CaCl2, 2 mM MgCl2, 10 mM HEPES, and 10 mM glucose, adjusted to pH 7.4 with NaOH. […] The fluorescence 340/380 ratio was measured using digital video microfluorometry with an intensified camera (OptiMOS; QImaging, Surrey, Canada) coupled to the microscope. Data were analyzed using SlideBook 6 (Intelligent Imaging Innovations, Denver, CO). At the end of the experiment, cells were identified based on their response to high concentrations of KCl.

[3] = 10 μg/kg; cited from earlier work
Description: To determine the potential effects of exendin 20–29 on GLP-1R and glucose regulation, we performed an acute intraperitoneal glucose tolerance test (IPGTT) in 8-week-old mice. […] After 15 min of exendin 20–29 or exendin-4 administration, a glucose solution (2 g/kg) was intraperitoneally injected (at 0 min; Fig. 8f).

[4] = acute intraperitoneal glucose tolerance test (IPGTT), blood glucose; assay type: in vivo, mouse (wild-type); conditions: 10 μg/kg i.p. 15 min before glucose 2 g/kg i.p.
Description: Licking time was recorded for 5 min after CAP injection in each group. Mechanical allodynia and thermal hyperalgesia were evaluated in separate experiments in a time-dependent manner. Mechanical allodynia was assessed using von Frey filaments (NC12775–99; North Coast Medical, CA). The 50% PWT was calculated using the up-down method. Thermal hyperalgesia was assessed by recording PWL using the Hargreaves radiant heat apparatus (IITC Life Sciences, Woodland Hills, CA). A cutoff value of 20 s was used to prevent tissue damage. […] The acute IPGTT was performed in mice aged 8 weeks. Baseline blood glucose levels were measured and mice were intraperitoneally injected with 200 μL of vehicle, exendin 20–29 (10 μg/kg), and exendin-4 (10 μg/kg) in wild-type mice (n = 6). After 15 min, the mice were challenged with glucose (2.0 g/kg body weight). Blood glucose levels were measured using an Accu-Chek Performa glucometer (Roche, Mannheim, Germany).

For exendin-4, the “CAP-induced TRPV1 calcium responses” value [1] was “****p <.0001, compared with each control CAP”, the “CAP-induced Ca2+ responses, significance” value ([2]; vs control CAP) was “****p<.0001, compared with control CAP” and the “reduction of CAP-induced Ca2+ responses” value ([2]; 100 nM peptide pretreatment, room temperature) was 72.2%. The blood glucose levels [3] was “lowers blood glucose levels” and the “blood glucose level in IPGTT” value [4] was “significantly lowered the blood glucose level from 15 to 120 min”.
